Data: patent publication US20190307776A1, “AZA-S[…] HUMAN IMMUNODEFICIENCY VIRUS REPLICATION” (priority 2016, published 2019)
pEC50: −log10 of the molar value.

Test system: recombinant NL4-3 virus
Assay: HIV cell culture assay
Assay type: cell-based
Details: Human immunodeficiency virus 1, NL43, MT2
Experimental: HIV cell culture assay—MT-2 cells and 293T cells were obtained from the NIH AIDS Research and Reference Reagent Program. MT-2 cells were propagated in RPMI 1640 media supplemented with 10% heat inactivated fetal bovine serum, 100 […]. The 293T cells were propagated in DMEM media supplemented with 10% heat inactivated fetal bovine serum (FBS), 100 units/ml penicillin G and 100 μg/ml streptomycin. The proviral DNA clone of NL4-3 was obtained from the NIH AIDS Research and Reference Reagent Program. A recombinant NL4-3 virus, in which a section of the nef gene from NL4-3 was replaced with the Renilla luciferase gene, was used as a reference virus. In addition, residue Gag P373 was converted to P373S. Briefly, the recombinant virus was prepared by transfection of the altered proviral clone of NL4-3. Transfections were performed in 293T cells using LipofectAMINE PLUS from Invitrogen (Carlsbad, Calif.), according to manufacturer's instruction. The virus was titered in MT-2 cells using luciferase enzyme activity as a marker. Luciferase was quantitated using the Dual Luciferase kit from Promega (Madison, Wis.), with modifications to the manufacturer's protocol. The diluted Passive Lysis solution was pre-mixed with the re-suspended Luciferase Assay Reagent and the re-suspended Stop & Glo Substrate (2:1:1 ratio). Fifty (50) μL of the mixture was added to each aspirated well on assay plates and luciferase activity was measured immediately on a Wallac TriLux (Perkin-Elmer). Antiviral activities of inhibitors toward the recombinant virus were quantified by measuring luciferase activity in cells infected for 4-5 days with NLRluc recombinants in the presence serial dilutions of the inhibitor.

Row | Structure (SMILES) | pEC50
1 | C=C(C)[C@@H]1CC[C@]2(CO)CC[C@]3(C)[C@H](CC[C@@H]4[C@@]5(C)CCCN(C(=O)c6cccc(C(=O)O)c6)C(C)(C)C5CC[C@]43C)[C@@H]12 (stereo partly drawn) [Example 2, 3-((7aR,7bR,9aS,12R,12aR,12bR,14aR,14bR)-9a-(hydroxymethyl)-5,5,7a,7b,14b-pentamethyl-12-(prop-1-en-2-yl)docosahydrocyclopenta[7,8]phenanthro[2,1-c]azepine-4-carbonyl)benzoic acid] | < 5.10
2 | C=C(C)[C@@H]1CC[C@]2(CNCCCN3CCS(=O)(=O)CC3)CC[C@]3(C)[C@H](CC[C@@H]4[C@@]5(C)CCN(c6ccc(C(=O)O)cn6)C(C)(C)[C@@H]5CC[C@]43C)[C@@H]12 [Example 42, 6-((4aR,6aR,6bR,8aS,11R,11aR,11bR,13aR,13bR)-8a-(((3-(1,1-dioxidothiomorpholino)propyl)amino)methyl)-4,4,6a,6b,13b-pentamethyl-11-(prop-1-en-2-yl)hexadecahydro-1H-cyclopenta[5,6]naphtho[2,1-f]isoquinolin-3(2H,4H,13bH)-yl)nicotinic acid] | 8.52
3 | C=C(C)[C@@H]1CC[C@]2(CO)CC[C@]3(C)[C@H](CC[C@@H]4[C@@]5(C)CCN(S(=O)(=O)c6ccc(C(=O)O)cc6)C(C)(C)C5CC[C@]43C)[C@@H]12 (stereo partly drawn) [Example 20, 4-(((6aR,6bR,8aS,11R,11aR,11bR,13aR,13bR)-8a-(hydroxymethyl)-4,4,6a,6b,13b-pentamethyl-11-(prop-1-en-2-yl)icosahydro-3H-cyclopenta[5,6]naphtho[2,1-f]isoquinolin-3-yl)sulfonyl)benzoic acid] | 5.51
4 | C=C(C)[C@@H]1CC[C@]2(CO)CC[C@]3(C)[C@H](CC[C@@H]4[C@@]5(C)CCN(S(=O)(=O)c6cccc(C(=O)O)c6)C(C)(C)C5CC[C@]43C)[C@@H]12 (stereo partly drawn) [Example 17, 3-(((6aR,6bR,8aS,11R,11aR,11bR,13aR,13bR)-8a-(hydroxymethyl)-4,4,6a,6b,13b-pentamethyl-11-(prop-1-en-2-yl)icosahydro-3H-cyclopenta[5,6]naphtho[2,1-f]isoquinolin-3-yl)sulfonyl)benzoic acid] | 5.31
5 | C=C(C)[C@@H]1CC[C@]2(CNCCCN3CCS(=O)(=O)CC3)CC[C@]3(C)[C@H](CC[C@@H]4[C@@]5(C)CCN(C/C=C/C(=O)O)C(C)(C)[C@@H]5CC[C@]43C)[C@@H]12 [Example 34, (E)-4-((4aR,6aR,6bR,8aS,11R,11aR,11bR,13aR,13bR)-8a-(((3-(1,1-dioxidothiomorpholino)propyl)amino)methyl)-4,4,6a,6b,13b-pentamethyl-11-(prop-1-en-2-yl)hexadecahydro-1H-cyclopenta[5,6]naphtho[2,1-f]isoquinolin-3(2H,4H,13bH)-yl)but-2-enoic acid] | < 5.52
6 | C=C(C)[C@@H]1CC[C@]2(CO)CC[C@]3(C)[C@H](CC[C@@H]4[C@@]5(C)CCN(C(=O)C(=O)O)C(C)(C)C5CC[C@]43C)[C@@H]12 (stereo partly drawn) [Example 6, 2-((6aR,6bR,8aS,11R,11aR,11bR,13aR,13bR)-8a-(hydroxymethyl)-4,4,6a,6b,13b-pentamethyl-11-(prop-1-en-2-yl)icosahydro-3H-cyclopenta[5,6]naphtho[2,1-f]isoquinolin-3-yl)-2-oxoacetic acid] | 5.40
7 | C=C(C)[C@@H]1CC[C@]2(CNCCCN3CCS(=O)(=O)CC3)CC[C@]3(C)[C@H](CC[C@@H]4[C@@]5(C)CCN(c6ncc(C(=O)O)cn6)C(C)(C)[C@@H]5CC[C@]43C)[C@@H]12 [Example 49, 2-((4aR,6aR,6bR,8aS,11R,11aR,11bR,13aR,13bR)-8a-(((3-(1,1-dioxidothiomorpholino)propyl)amino)methyl)-4,4,6a,6b,13b-pentamethyl-11-(prop-1-en-2-yl)hexadecahydro-1H-cyclopenta[5,6]naphtho[2,1-f]isoquinolin-3(2H,4H,13bH)-yl)pyrimidine-5-carboxylic acid] | 9.15
8 | C=C(C)[C@@H]1CC[C@]2(CNCCCN3CCS(=O)(=O)CC3)CC[C@]3(C)[C@H](CC[C@@H]4[C@@]5(C)CCN(c6ncc(C(=O)O)s6)C(C)(C)[C@@H]5CC[C@]43C)[C@@H]12 [Example 56, 2-((4aR,6aR,6bR,8aS,11R,11aR,11bR,13aR,13bR)-8a-(((3-(1,1-dioxidothiomorpholino)propyl)amino)methyl)-4,4,6a,6b,13b-pentamethyl-11-(prop-1-en-2-yl)hexadecahydro-1H-cyclopenta[5,6]naphtho[2,1-f]isoquinolin-3(2H,4H,13bH)-yl)thiazole-5-carboxylic acid] | 8.40
9 | C=C(C)[C@@H]1CC[C@]2(CNCCCN3CCS(=O)(=O)CC3)CC[C@]3(C)[C@H](CC[C@@H]4[C@@]5(C)CCN(C(=O)CCc6ccc(C(=O)O)cc6)C(C)(C)[C@@H]5CC[C@]43C)[C@@H]12 [Example 28, 4-(3-((4aR,6aR,6bR,8aS,11R,11aR,11bR,13aR,13bR)-8a-(((3-(1,1-dioxidothiomorpholino)propyl)amino)methyl)-4,4,6a,6b,13b-pentamethyl-11-(prop-1-en-2-yl)hexadecahydro-1H-cyclopenta[5,6]naphtho[2,1-f]isoquinolin-3(2H,4H,13bH)-yl)-3-oxopropyl)benzoic acid] | 6.03
10 | C=C(C)[C@@H]1CC[C@]2(CO)CC[C@]3(C)[C@H](CC[C@@H]4[C@@]5(C)CCN(C(=O)c6cccc(C(=O)O)c6)C(C)(C)C5CC[C@]43C)[C@@H]12 (stereo partly drawn) [Example 5, 3-((6aR,6bR,8aS,11R,11aR,11bR,13aR,13bR)-8a-(hydroxymethyl)-4,4,6a,6b,13b-pentamethyl-11-(prop-1-en-2-yl)icosahydro-1H-cyclopenta[5,6]naphtho[2,1-f]isoquinoline-3-carbonyl)benzoic acid] | 5.90
11 | C=C(C)[C@@H]1CC[C@]2(NCCN3CCS(=O)(=O)CC3)CC[C@]3(C)[C@H](CC[C@@H]4[C@@]5(C)CCN(c6ncc(C(=O)O)cn6)C(C)(C)[C@@H]5CC[C@]43C)[C@@H]12 [Example 53, 2-((4aR,6aR,6bR,8aS,11R,11aR,11bR,13aR,13bR)-8a-((2-(1,1-dioxidothiomorpholino)ethyl)amino)-4,4,6a,6b,13b-pentamethyl-11-(prop-1-en-2-yl)hexadecahydro-1H-cyclopenta[5,6]naphtho[2,1-f]isoquinolin-3(2H,4H,13bH)-yl)pyrimidine-5-carboxylic acid] | 9.00
12 | C=C(C)[C@@H]1CC[C@]2(CO)CC[C@]3(C)[C@H](CC[C@@H]4[C@@]5(C)CCN(S(=O)(=O)c6ccsc6C(=O)O)C(C)(C)C5CC[C@]43C)[C@@H]12 (stereo partly drawn) [Example 21, 3-(((6aR,6bR,8aS,11R,11aR,11bR,13aR,13bR)-8a-(hydroxymethyl)-4,4,6a,6b,13b-pentamethyl-11-(prop-1-en-2-yl)icosahydro-3H-cyclopenta[5,6]naphtho[2,1-f]isoquinolin-3-yl)sulfonyl)thiophene-2-carboxylic acid] | < 5.10
13 | C=C(C)[C@@H]1CC[C@]2(CNCCCN3CCS(=O)(=O)CC3)CC[C@]3(C)[C@H](CC[C@@H]4[C@@]5(C)CCN(c6ccc(N)cc6)C(C)(C)[C@@H]5CC[C@]43C)[C@@H]12 [Example 47, 4-(3-((((4aR,6aR,6bR,8aS,11R,11aR,11bR,13aR,13bR)-3-(4-aminophenyl)-4,4,6a,6b,13b-pentamethyl-11-(prop-1-en-2-yl)icosahydro-1H-cyclopenta[5,6]naphtho[2,1-f]isoquinolin-8a-yl)methyl)amino)propyl)thiomorpholine 1,1-dioxide] | < 6.48
14 | C=C(C)[C@@H]1CC[C@]2(CNCCCN3CCS(=O)(=O)CC3)CC[C@]3(C)[C@H](CC[C@@H]4[C@@]5(C)CCN(c6ccc(C(=O)O)nn6)C(C)(C)[C@@H]5CC[C@]43C)[C@@H]12 [Example 54, 6-((4aR,6aR,6bR,8aS,11R,11aR,11bR,13aR,13bR)-8a-(((3-(1,1-dioxidothiomorpholino)propyl)amino)methyl)-4,4,6a,6b,13b-pentamethyl-11-(prop-1-en-2-yl)hexadecahydro-1H-cyclopenta[5,6]naphtho[2,1-f]isoquinolin-3(2H,4H,13bH)-yl)pyridazine-3-carboxylic acid] | 6.55
15 | C=C(C)[C@@H]1CC[C@]2(CNCCCN3CCS(=O)(=O)CC3)CC[C@]3(C)[C@H](CC[C@@H]4[C@@]5(C)CCN(c6ncc(C(N)=O)cn6)C(C)(C)[C@@H]5CC[C@]43C)[C@@H]12 [Example 50, 2-((4aR,6aR,6bR,8aS,11R,11aR,11bR,13aR,13bR)-8a-(((3-(1,1-dioxidothiomorpholino)propyl)amino)methyl)-4,4,6a,6b,13b-pentamethyl-11-(prop-1-en-2-yl)hexadecahydro-1H-cyclopenta[5,6]naphtho[2,1-f]isoquinolin-3(2H,4H,13bH)-yl)pyrimidine-5-carboxamide] | 7.22
